Measured values from publication PMC9298254 (Chembiochem, 2021).

Columns and labels:
Cys-P1-tagged GPCR = assay: peptide-templated labeling of Cys-P1-tagged GPCRs in live HEK293 cells; type: cell-based; conditions: n=3; for fluorescent labeling: Cys-P1-ETAR-GFP, 200 nM probe
Cys-P3-tagged GPCR = assay: peptide-templated labeling of Cys-P3-tagged GPCRs in live HEK293 cells; type: cell-based; conditions: n=3; for fluorescent labeling: 200 nM probe
ETBR-GFP = assay: Ca2+ flux, COS-7, ETBR-GFP co-transfected with other GPCRs; type: cell-based; conditions: mock+sitaxentan vs mock+vehicle (no ETAR expression)
ETAR = conditions: competitive antagonist; ref [36]; cited from earlier work
ETBR = conditions: competitive antagonist; ref [36]; cited from earlier work

## KIAQLKQ KIQALKQ ENQQLEE ENAALEY [TAMRA‐P4]
Cys-P1-tagged GPCR; Cys-P1-ETBR-GFP with non-complementary probe
  cross-reactivity labeling: no successful TAMRA labeling was detectable
Cys-P3-tagged GPCR; Cys-P3-ETAR-GFP
  fluorescent labeling: successfully labeled
  labeling with complementary probe: Rapid TAMRA staining within 5 min

## TAMRA‐MPAA‐GSGSG
Cys-P1-tagged GPCR
  fluorescent labeling: no labeling of GFP‐positive cells was detectable
Cys-P3-tagged GPCR; Cys-P3-ETAR-GFP
  fluorescent labeling: no labeling of GFP‐positive cells was detectable

## KIAQLKE KNAALKE KNQQLKE KIQALKY [TAMRA‐P2, 6‐carboxytetramethyl‐rhodamine (TAMRA)‐P2]
Cys-P1-tagged GPCR
  fluorescent labeling: successfully labeled
Cys-P1-tagged GPCR; Cys-P1-ETBR-GFP
  labeling with complementary probe: Rapid TAMRA staining within 5 min
Cys-P3-tagged GPCR; Cys-P3-ETAR-GFP with non-complementary probe
  cross-reactivity labeling: no successful TAMRA labeling was detectable

## Cc1cc2c(cc1CC(=O)c1sccc1S(=O)(=O)Nc1onc(C)c1Cl)OCO2 [sitaxentan]
ETBR-GFP
  effect on ET-1 efficacy and potency at ETBR: No differences in both ligand efficacy and potency
ETAR
  IC50: ~0.001 µM
ETBR
  IC50: ~10 µM
